{
  "source": "patent US20240390408A1",
  "about": "“METHOD OF TREATING HEPATITIS C VIRUS IN PATIENTS” (Altesa BioSciences, Inc., priority 2023, published 2024)",
  "key": {"[1]": {"assay": "Stability in minipig plasma", "format": "in vitro ADME"}, "[2]": {"assay": "Tissue concentrations of Formula I and its metabolites in Göttingen pigs after a single oral or intravenous dose (LC-MS/MS)", "format": "in vivo", "settings": "for concentration at 2 h / concentration at 3 h: both sexes, Göttingen, pig (minipig), in vivo; for concentration at 2 h: 25 mg/kg; for concentration at 3 h: 125 mg/kg", "description": "Tissue samples were collected at 3, 12, and 24 hours post-dose (hpd) for the oral dose and 2 and 12 hpd for the intravenous dose, snap-frozen in liquid nitrogen, and stored at −60 to −90° C. until shipment on dry ice for analysis by LC-MS/MS.\nAnimals were weighed the day prior to dosing to determine the dosing volume.\nThe compound of Formula I was dissolved in a PEG 400/DI water (60%/40% v/v) vehicle for oral dosing. For IV dosing the compound of Formula I was dissolved in a PEG 400/Cremophor RH 40/Saline (40%/10%/50% v/v) vehicle and passed through a sterile filter. […] Animals were euthanized by euthanasia solution administration under sedation, if necessary (e.g., acepromazine and or/Telazol®), followed by a Testing Facility SOP approved method to ensure death (e.g., exsanguination). Tissues were collected from two animals per sex per timepoint. Tissue samples, including the brain, heart, kidney, liver, lung, spleen, pancreas, bone marrow, duodenum, jejunum, and colon, were collected in duplicate (approximately 50±20 mg each) and placed into two separate reinforced homogenization tubes per organ (one tissue sample per tube). The exact weight (in milligrams) of each sample was recorded. Tissues samples were flash frozen in liquid nitrogen and stored at −60 to −90° C. until shipment on dry ice for analysis by LC-MS/MS.\nMobile phase A consisted of 50 mM ammonium bicarbonate buffer in HPLC grade water pH 9.8 and mobile phase B consisted of pure acetonitrile. […] Mass spectrometry analysis was performed on a QTrap 7500 Mass Spectrometer (Sciex, Framingham, MA, USA) using negative mode electrospray ionization (ESI) in multiple reaction monitoring (MRM) mode. Data analysis was performed using SCIEX OS Software (Sciex, Framingham, MA, USA).\nTissue samples were collected at 3, 12, and 24 hours post-dose for the oral dose and 2 and 12 hour post-dose for the intravenous dose."}, "[3]": {"settings": "liver, single oral dose of Formula I 125 mg/kg, 12 hpd"}, "[4]": {"settings": "liver, single oral dose of Formula I 125 mg/kg, 24 hpd"}},
  "note": "Like-named read-outs stand apart in the source and are kept apart here.",
  "data": [
    {"smiles": "CC(C)OC(=O)[C@H](C)N[P@](=O)(OC[C@H]1O[C@@H](n2ccc(=O)[nH]c2=S)C(C)(O)C1O)Oc1ccccc1", "note": "(some centres unmarked) [Formula I]", "values": [
      {"measurement": "Stability in minipig plasma", "setting": "[1]", "value": "good stability"},
      {"measurement": "Quantity detectable in organs", "setting": "[2]; all organs, 2-3 hours after IV or PO dosing", "value": "~0.1", "unit": "µM"},
      {"measurement": "concentration at 2 h", "setting": "[2]; kidney, single intravenous bolus of Formula I 25 mg/kg, 2 hpd, read-out: Tissue concentration, kidney", "value": "85 ± 93.1", "unit": "ng/g"},
      {"measurement": "concentration at 2 h", "setting": "[2]; liver, single intravenous bolus of Formula I 25 mg/kg, 2 hpd, read-out: Tissue concentration, liver", "value": "7.03 ± 8.24", "unit": "ng/g"},
      {"measurement": "concentration at 2 h", "setting": "[2]; lung, single intravenous bolus of Formula I 25 mg/kg, 2 hpd, read-out: Tissue concentration, lung", "value": "51.8 ± 29.1", "unit": "ng/g"},
      {"measurement": "concentration at 2 h", "setting": "[2]; spleen, single intravenous bolus of Formula I 25 mg/kg, 2 hpd, read-out: Tissue concentration, spleen", "value": "63.9 ± 29.8", "unit": "ng/g"},
      {"measurement": "concentration at 3 h", "setting": "[2]; brain, single oral dose of Formula I 125 mg/kg, 3 hpd, read-out: Tissue concentration, brain", "value": "31.5 ± 63", "unit": "ng/g"},
      {"measurement": "concentration at 3 h", "setting": "[2]; heart, single oral dose of Formula I 125 mg/kg, 3 hpd, read-out: Tissue concentration, heart", "value": "117 ± 105", "unit": "ng/g"},
      {"measurement": "concentration at 3 h", "setting": "[2]; liver, single oral dose of Formula I 125 mg/kg, 3 hpd, read-out: Tissue concentration in Göttingen pig liver (Table 7)", "value": "496 ± 663", "unit": "nM"},
      {"measurement": "concentration at 3 h", "setting": "[2]; liver, single oral dose of Formula I 125 mg/kg, 3 hpd, read-out: Tissue concentration, liver", "value": "270 ± 361", "unit": "ng/g"},
      {"measurement": "concentration at 3 h", "setting": "[2]; lung, single oral dose of Formula I 125 mg/kg, 3 hpd, read-out: Tissue concentration, lung", "value": "38.6 ± 46.5", "unit": "ng/g"},
      {"measurement": "concentration at 3 h", "setting": "[2]; spleen, single oral dose of Formula I 125 mg/kg, 3 hpd, read-out: Tissue concentration, spleen", "value": "88.4 ± 60.3", "unit": "ng/g"},
      {"measurement": "Tissue concentration, brain", "setting": "[2]; brain, single intravenous bolus of Formula I 25 mg/kg, 2 hpd", "value": "BQL"},
      {"measurement": "Tissue concentration, brain", "setting": "[2]; brain, single intravenous bolus of Formula I 25 mg/kg, 12 hpd", "value": "BQL"},
      {"measurement": "Tissue concentration, brain", "setting": "[2]; brain, single oral dose of Formula I 125 mg/kg, 3 hpd", "value": "31.5 ± 63.0", "unit": "ng/g"},
      {"measurement": "Tissue concentration, brain", "setting": "[2]; brain, single oral dose of Formula I 125 mg/kg, 12 hpd", "value": "BQL"},
      {"measurement": "Tissue concentration, brain", "setting": "[2]; brain, single oral dose of Formula I 125 mg/kg, 24 hpd", "value": "BQL"},
      {"measurement": "Tissue concentration, heart", "setting": "[2]; heart, single intravenous bolus of Formula I 25 mg/kg, 2 hpd", "value": "112 ± 69.0", "unit": "ng/g"},
      {"measurement": "Tissue concentration, heart", "setting": "[2]; heart, single intravenous bolus of Formula I 25 mg/kg, 12 hpd", "value": "2.95 ± 5.90", "unit": "ng/g"},
      {"measurement": "Tissue concentration, heart", "setting": "[2]; heart, single oral dose of Formula I 125 mg/kg, 12 hpd", "value": "BQL"},
      {"measurement": "Tissue concentration, heart", "setting": "[2]; heart, single oral dose of Formula I 125 mg/kg, 24 hpd", "value": "BQL"},
      {"measurement": "Tissue concentration, kidney", "setting": "[2]; kidney, single intravenous bolus of Formula I 25 mg/kg, 12 hpd", "value": "BQL"},
      {"measurement": "Tissue concentration, kidney", "setting": "[2]; kidney, single oral dose of Formula I 125 mg/kg, 3 hpd", "value": "BQL"},
      {"measurement": "Tissue concentration, kidney", "setting": "[2]; kidney, single oral dose of Formula I 125 mg/kg, 12 hpd", "value": "BQL"},
      {"measurement": "Tissue concentration, kidney", "setting": "[2]; kidney, single oral dose of Formula I 125 mg/kg, 24 hpd", "value": "BQL"},
      {"measurement": "Tissue concentration, liver", "setting": "[2]; liver, single intravenous bolus of Formula I 25 mg/kg, 2 hpd", "value": "7.03 ± 8.24", "unit": "ng/g"},
      {"measurement": "Tissue concentration, liver", "setting": "[2]; liver, single intravenous bolus of Formula I 25 mg/kg, 12 hpd", "value": "BQL"},
      {"measurement": "Tissue concentration, liver", "setting": "[2]; liver, single oral dose of Formula I 125 mg/kg, 3 hpd", "value": "270 ± 361", "unit": "ng/g"},
      {"measurement": "Tissue concentration in Göttingen pig liver (Table 7)", "setting": "[2]; [3]", "value": "BQL"},
      {"measurement": "Tissue concentration, liver", "setting": "[2]; [3]", "value": "BQL"},
      {"measurement": "Tissue concentration in Göttingen pig liver (Table 7)", "setting": "[2]; [4]", "value": "BQL"},
      {"measurement": "Tissue concentration, liver", "setting": "[2]; [4]", "value": "BQL"},
      {"measurement": "Tissue concentration, lung", "setting": "[2]; lung, single intravenous bolus of Formula I 25 mg/kg, 12 hpd", "value": "BQL"},
      {"measurement": "Tissue concentration, lung", "setting": "[2]; lung, single oral dose of Formula I 125 mg/kg, 12 hpd", "value": "BQL"},
      {"measurement": "Tissue concentration, lung", "setting": "[2]; lung, single oral dose of Formula I 125 mg/kg, 24 hpd", "value": "BQL"},
      {"measurement": "Tissue concentration, spleen", "setting": "[2]; spleen, single intravenous bolus of Formula I 25 mg/kg, 12 hpd", "value": "BQL"},
      {"measurement": "Tissue concentration, spleen", "setting": "[2]; spleen, single oral dose of Formula I 125 mg/kg, 12 hpd", "value": "BQL"},
      {"measurement": "Tissue concentration, spleen", "setting": "[2]; spleen, single oral dose of Formula I 125 mg/kg, 24 hpd", "value": "BQL"}
    ]}
  ]
}
